# In patent publication US9561228B2 (Celgene Avilomics Research, Inc., priority 2013, dated 2017):
# What was measured:
# Format in all cases: cell-based
# [1] = system: HT-29 cells (colorectal adenocarcinoma); assay: Inhibition of cancer cell proliferation, HT-29 (CellTiterGlo, 72 hours); details: Homo sapiens
# How it was run: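 HT-29 cells seeded at 3000/well, then treated with 3-fold serial dilutions from a 5,000 nM two-fold solution in serum-free RPMI1640, untreated wells as control, for 72 h at 37° C. CellTiterGlo luminescence converted to cell number via a standard curve; GI50 from percent inhibition versus untreated growth.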
# [2] = system: HCT116 cells (colorectal carcinoma); assay: Inhibition of cancer cell proliferation, HCT116 (CellTiterGlo, 72 hours); details: Homo sapiens, HCT-116
# How it was run: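 3000 cells per well exposed to 3-fold serial compound dilutions from 5,000 nM (two-fold solution, stock level) for 72 hours at 37° C. CellTiterGlo luminescence converted to cell number via a standard curve; percent inhibition vs untreated wells, GI50 by curve fit.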
# [3] = system: A375 cells (malignant melanoma); assay: Inhibition of cancer cell proliferation, A375 (CellTiterGlo, 72 hours); details: Homo sapiens, A-375
# How it was run: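 A375 melanoma cells, 3000/well, exposed 72 h at 37 °C to compound in 3-fold serial dilutions (solution added as 2× stock starting at 5,000 nM in serum-free DMEM). CellTiterGlo luminescence converted to cell number via standard curve; % inhibition vs untreated control, GI50 from curve fit.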
GI50 [1] [µM],GI50 [2] [µM],GI50 [3] [µM],SMILES
< 0.1,> 1,0.101 to 0.5,"C=CC(=O)Nc1cc(C)c(F)cc1Nc1nc(Nc2nc(OC)ncc2C)ncc1C(F)(F)F [Compound I-377, N-(4-fluoro-2-((2-((2-methoxy-5-methylpyrimidin-4-yl)amino)-5-(trifluoromethyl)pyrimidin-4-yl)amino)-5-methylphenyl)acrylamide]"
0.501 to 0.999,> 1,0.101 to 0.5,"C=CC(=O)Nc1cc(C)ccc1Nc1nc(Nc2cc(OCCOC)ncc2C)ncc1C(F)(F)F [Compound I-359, N-(2-((2-((2-(2-methoxyethoxy)-5-methylpyridin-4-yl)amino)-5-(trifluoromethyl)pyrimidin-4-yl)amino)-5-methylphenyl)acrylamide]"
< 0.1,0.101 to 0.5,< 0.1,"C=CC(=O)Nc1ccccc1Nc1nc(Nc2cc(OC)ncc2C)ncc1C(F)(F)F [Compound I-85, N-(2-((2-((2-Methoxy-5-methylpyridin-4-yl)amino)-5-(trifluoromethyl)pyrimidin-4-yl)amino)phenyl)acrylamide]"
< 0.1,0.101 to 0.5,< 0.1,"C=CC(=O)Nc1cc(CN2CCN(C(=O)c3cnccn3)CC2)ccc1Nc1nc(Nc2cc(OC)ncc2C)ncc1C(F)(F)F [Compound I-390, N-(2-((2-((2-methoxy-5-methylpyridin-4-yl)amino)-5-(trifluoromethyl)pyrimidin-4-yl)amino)-5-((4-(pyrazine-2-carbonyl)piperazin-1-yl)methyl)phenyl)acrylamide]"
0.101 to 0.5,0.101 to 0.5,< 0.1,"C=CC(=O)Nc1cc(C)ccc1Nc1nc(Nc2nc(O)ncc2C)ncc1C(F)(F)F [Compound I-364, N-(2-((2-((2-hydroxy-5-methylpyrimidin-4-yl)amino)-5-(trifluoromethyl)pyrimidin-4-yl)amino)-5-methylphenyl)acrylamide]"
